Literature values, collected in patent publication US20030181371A1, “Compositions and methods of using collajolie” (Angiotech Pharmaceuticals, Inc., priority 2001, published 2003).

What was measured:
[1] = not given; remark: listed apart in the source

CNC(=O)[C@@H](NC(=O)[C@H](CC(C)C)[C@H](O)C(=O)NO)C(C)(C)C [Marimistat]
established well tolerated single daily dose (single daily dose): 50 mg

CN(C)c1ccc(O)c2c1C[C@H]1C[C@H]3[C@H](N(C)C)C(O)=C(C(N)=O)C(=O)[C@@]3(O)C(O)=C1C2=O [minocycline, 7-dimethylamino-6-dimethyl-6-deoxytetracycline]
well tolerated daily dosage: 200 mg

CN(C)[C@@H]1C(O)=C(C(N)=O)C(=O)[C@@]2(O)C(O)=C3C(=O)c4c(O)cccc4[C@@](C)(O)C3C[C@@H]12 (stereo in doubt) [tetracycline, 4-(dimethylamino)-1,4,4a,5,5a,6,11,12a-octahydro-3,6,10,12,12a-pentahydroxy-6-methyl-1,11-dioxo-2-naphthacenecarboxamide]
well tolerated daily dosage: 1000 mg

CNC(=O)[C@H](Cc1ccccc1)NC(=O)[C@H](CC(C)C)[C@H](CSc1cccs1)C(=O)NO [Batimistat]
solubility [1]: highly insoluble

C[C@H]1c2cccc(O)c2C(=O)C2=C(O)[C@]3(O)C(=O)C(C(N)=O)=C(O)[C@@H](N(C)C)[C@@H]3[C@@H](O)[C@@H]21 [doxycycline, α-6-deoxy-5-hydroxy-tetracycline]
well tolerated daily dosage: 100 mg
